Test results reported in publication PMC11173301, “On the Cholesterol Raising Effect of Coffee Diterpenes Cafestol and 16-O-Methylcafestol: Interaction with Farnesoid X Receptor” (International Journal of Molecular Sciences, 2024).

Target: T1, FXR-LBD (FXR-WT; stabilized mutant FXR-CCEE) (Homo sapiens, UniProt Q96RI1)
T1 construct: gene NR1H4; plasmid from Prof; Jinsong Liu; CCEE = C432E/C466E
T1 sequence (Q96RI1 225-472 isoform Q96RI1-2): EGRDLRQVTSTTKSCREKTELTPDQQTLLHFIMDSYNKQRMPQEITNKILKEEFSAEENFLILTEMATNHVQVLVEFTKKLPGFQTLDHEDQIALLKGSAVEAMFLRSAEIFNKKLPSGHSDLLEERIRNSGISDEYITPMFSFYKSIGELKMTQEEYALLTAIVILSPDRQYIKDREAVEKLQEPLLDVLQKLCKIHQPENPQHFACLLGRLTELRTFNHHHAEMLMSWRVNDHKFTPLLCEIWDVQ
Test: intrinsic fluorescence titration, Stern-Volmer
Assay type: binding
Details: […] protein, phosphate pH […] NaCl, […] glycerol, […] °C; no inner filter correction
Description: intrinsic fluorescence titration, Stern-Volmer on FXR-LBD (FXR-WT; stabilized mutant FXR-CCEE) | With GG, the numbers for the FXR-WT and the FXR-CCEE mutant were quite different

## C/C=C1\C(=O)C[C@H]2[C@@H]3CCC4=CC(=O)CC[C@]4(C)[C@H]3CC[C@]12C [guggulsterone]
  Stern-Volmer constant (KSV): 33650 ± 5000 L/mol
